Experimental data taken from ChEMBL document CHEMBL5291721, “A preclinical secondary pharmacology resource illuminates target-adverse drug reaction associations of marketed drugs” (Nat Commun, 2023).

Tests used:
[1] = target: T1, Type-1 angiotensin II receptor (Homo sapiens, UniProt P30556)
T1 sequence (P30556 whole entry): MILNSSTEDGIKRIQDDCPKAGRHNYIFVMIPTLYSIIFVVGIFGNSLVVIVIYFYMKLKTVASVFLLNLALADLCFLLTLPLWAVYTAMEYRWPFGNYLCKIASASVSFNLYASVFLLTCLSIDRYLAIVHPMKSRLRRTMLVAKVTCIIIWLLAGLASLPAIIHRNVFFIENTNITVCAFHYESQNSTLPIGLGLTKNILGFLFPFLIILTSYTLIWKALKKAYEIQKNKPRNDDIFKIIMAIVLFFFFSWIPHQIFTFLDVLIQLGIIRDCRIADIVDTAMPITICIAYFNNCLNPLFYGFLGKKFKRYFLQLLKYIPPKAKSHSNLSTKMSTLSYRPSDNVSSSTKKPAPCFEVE

[2] = target: T2, Alpha-2A adrenergic receptor (Homo sapiens, UniProt P08913); assay type: functional, cell-based
T2 sequence (P08913 whole entry): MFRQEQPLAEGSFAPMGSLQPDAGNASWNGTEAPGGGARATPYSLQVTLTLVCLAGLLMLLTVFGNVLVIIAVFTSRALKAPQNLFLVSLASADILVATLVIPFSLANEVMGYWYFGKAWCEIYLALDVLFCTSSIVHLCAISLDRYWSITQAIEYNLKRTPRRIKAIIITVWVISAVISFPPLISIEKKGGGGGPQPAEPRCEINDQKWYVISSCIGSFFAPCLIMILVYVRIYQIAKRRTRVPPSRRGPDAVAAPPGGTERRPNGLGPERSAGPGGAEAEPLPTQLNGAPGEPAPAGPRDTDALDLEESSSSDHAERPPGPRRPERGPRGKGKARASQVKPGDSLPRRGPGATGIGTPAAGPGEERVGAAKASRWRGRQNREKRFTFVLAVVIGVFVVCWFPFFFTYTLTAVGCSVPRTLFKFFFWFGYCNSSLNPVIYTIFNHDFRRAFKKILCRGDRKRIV

D(3) dopamine receptor = D(3) dopamine receptor (Homo sapiens, UniProt P35462)
Sequence of D(3) dopamine receptor (P35462 whole entry): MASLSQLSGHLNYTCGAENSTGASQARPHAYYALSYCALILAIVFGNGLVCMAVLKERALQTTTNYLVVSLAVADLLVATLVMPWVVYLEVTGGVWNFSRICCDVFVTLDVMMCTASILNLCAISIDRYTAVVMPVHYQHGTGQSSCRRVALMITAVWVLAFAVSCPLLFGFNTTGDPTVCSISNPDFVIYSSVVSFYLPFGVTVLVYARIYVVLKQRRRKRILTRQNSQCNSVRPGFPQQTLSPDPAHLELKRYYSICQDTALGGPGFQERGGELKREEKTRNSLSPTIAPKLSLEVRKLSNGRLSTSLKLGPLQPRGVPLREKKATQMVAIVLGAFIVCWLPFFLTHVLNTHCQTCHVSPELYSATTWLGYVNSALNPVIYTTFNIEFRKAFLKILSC

[3] = target: T3, Alpha-1A adrenergic receptor (Homo sapiens, UniProt P35348); assay type: functional, cell-based
T3 sequence (P35348 whole entry): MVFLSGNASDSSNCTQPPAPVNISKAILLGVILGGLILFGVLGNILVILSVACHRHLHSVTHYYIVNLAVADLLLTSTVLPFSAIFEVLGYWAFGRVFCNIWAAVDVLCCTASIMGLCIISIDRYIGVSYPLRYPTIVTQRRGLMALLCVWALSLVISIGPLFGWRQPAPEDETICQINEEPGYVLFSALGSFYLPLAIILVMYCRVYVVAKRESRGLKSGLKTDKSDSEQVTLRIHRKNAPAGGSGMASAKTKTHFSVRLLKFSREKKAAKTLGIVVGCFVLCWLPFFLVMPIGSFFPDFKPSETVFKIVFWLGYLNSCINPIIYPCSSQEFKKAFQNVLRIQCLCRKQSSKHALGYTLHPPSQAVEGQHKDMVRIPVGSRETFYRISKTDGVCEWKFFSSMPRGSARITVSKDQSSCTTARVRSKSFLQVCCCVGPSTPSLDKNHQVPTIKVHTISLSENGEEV

Adenosine receptor A2a = Adenosine receptor A2a (Homo sapiens, UniProt P29274)
Sequence of Adenosine receptor A2a (P29274 whole entry): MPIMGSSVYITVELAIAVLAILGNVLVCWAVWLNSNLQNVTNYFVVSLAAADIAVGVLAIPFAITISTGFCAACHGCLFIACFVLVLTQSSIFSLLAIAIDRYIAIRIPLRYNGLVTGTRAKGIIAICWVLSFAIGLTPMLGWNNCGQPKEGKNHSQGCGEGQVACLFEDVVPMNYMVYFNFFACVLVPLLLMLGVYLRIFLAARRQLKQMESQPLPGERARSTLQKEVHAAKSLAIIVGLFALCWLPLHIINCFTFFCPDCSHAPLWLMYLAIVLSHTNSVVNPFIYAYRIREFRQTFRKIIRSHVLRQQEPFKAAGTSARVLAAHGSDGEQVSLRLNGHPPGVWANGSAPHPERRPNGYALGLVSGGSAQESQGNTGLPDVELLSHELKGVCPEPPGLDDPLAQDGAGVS

Vasopressin V1a receptor = Vasopressin V1a receptor (Homo sapiens, UniProt P37288)
Sequence of Vasopressin V1a receptor (P37288 whole entry): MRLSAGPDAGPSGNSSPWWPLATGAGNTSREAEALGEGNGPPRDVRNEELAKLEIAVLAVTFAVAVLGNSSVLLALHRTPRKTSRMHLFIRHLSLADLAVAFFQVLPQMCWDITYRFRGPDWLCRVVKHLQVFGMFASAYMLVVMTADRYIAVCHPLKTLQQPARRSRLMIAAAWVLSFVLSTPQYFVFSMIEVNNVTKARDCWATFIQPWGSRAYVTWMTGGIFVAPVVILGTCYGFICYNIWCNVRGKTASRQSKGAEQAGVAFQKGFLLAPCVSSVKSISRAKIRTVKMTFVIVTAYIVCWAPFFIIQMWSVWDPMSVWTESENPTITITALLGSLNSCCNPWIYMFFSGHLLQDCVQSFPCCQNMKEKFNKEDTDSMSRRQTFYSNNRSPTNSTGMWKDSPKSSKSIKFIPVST

[4] = target: cGMP-inhibited 3',5'-cyclic phosphodiesterase 3A (Homo sapiens, UniProt Q14432); assay type: functional
Sequence of cGMP-inhibited 3',5'-cyclic phosphodiesterase 3A (Q14432 whole entry): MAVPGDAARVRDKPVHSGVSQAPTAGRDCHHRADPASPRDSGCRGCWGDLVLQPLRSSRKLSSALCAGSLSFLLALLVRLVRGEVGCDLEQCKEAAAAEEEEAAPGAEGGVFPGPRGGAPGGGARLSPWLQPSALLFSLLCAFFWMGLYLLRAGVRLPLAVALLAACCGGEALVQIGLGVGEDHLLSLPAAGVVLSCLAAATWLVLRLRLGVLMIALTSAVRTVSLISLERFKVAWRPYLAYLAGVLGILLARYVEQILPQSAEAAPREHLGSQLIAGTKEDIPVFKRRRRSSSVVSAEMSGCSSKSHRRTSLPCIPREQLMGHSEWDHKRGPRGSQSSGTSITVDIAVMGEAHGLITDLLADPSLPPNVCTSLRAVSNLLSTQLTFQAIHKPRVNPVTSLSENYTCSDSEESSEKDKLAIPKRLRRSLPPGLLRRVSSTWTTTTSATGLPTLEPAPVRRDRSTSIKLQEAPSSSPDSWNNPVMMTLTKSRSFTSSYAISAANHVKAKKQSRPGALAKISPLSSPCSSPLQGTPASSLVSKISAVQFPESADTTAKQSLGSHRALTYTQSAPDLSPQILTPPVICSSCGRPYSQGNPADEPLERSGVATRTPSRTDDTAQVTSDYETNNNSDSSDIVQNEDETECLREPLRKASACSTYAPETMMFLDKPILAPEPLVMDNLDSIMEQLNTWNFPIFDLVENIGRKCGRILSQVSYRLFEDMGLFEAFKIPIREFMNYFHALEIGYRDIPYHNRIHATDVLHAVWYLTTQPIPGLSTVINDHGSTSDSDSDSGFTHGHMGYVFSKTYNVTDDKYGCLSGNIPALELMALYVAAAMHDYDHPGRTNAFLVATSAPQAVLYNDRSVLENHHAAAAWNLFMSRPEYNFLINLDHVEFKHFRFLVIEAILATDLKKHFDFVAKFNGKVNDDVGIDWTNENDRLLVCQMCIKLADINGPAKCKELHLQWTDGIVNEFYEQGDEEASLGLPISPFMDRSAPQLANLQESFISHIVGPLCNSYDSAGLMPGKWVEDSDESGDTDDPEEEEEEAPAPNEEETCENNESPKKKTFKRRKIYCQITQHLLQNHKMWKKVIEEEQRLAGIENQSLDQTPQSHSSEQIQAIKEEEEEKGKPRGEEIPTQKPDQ

[5] = target: T4, Cholecystokinin receptor type A (Homo sapiens, UniProt P32238)
T4 sequence (P32238 whole entry): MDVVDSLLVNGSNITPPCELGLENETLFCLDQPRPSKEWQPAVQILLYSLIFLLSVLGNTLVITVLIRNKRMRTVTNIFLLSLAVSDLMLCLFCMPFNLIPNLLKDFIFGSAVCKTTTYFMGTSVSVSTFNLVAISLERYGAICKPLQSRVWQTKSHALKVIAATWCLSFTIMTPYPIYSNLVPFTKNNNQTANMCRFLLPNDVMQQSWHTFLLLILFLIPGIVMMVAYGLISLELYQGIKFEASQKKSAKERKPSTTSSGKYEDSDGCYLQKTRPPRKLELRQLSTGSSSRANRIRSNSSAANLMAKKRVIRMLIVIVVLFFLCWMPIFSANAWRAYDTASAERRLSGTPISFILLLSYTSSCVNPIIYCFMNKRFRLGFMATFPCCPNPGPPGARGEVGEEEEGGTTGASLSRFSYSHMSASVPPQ

Progesterone receptor = target: T5, Progesterone receptor (Homo sapiens, UniProt P06401); assay type: functional
T5 sequence (P06401 whole entry): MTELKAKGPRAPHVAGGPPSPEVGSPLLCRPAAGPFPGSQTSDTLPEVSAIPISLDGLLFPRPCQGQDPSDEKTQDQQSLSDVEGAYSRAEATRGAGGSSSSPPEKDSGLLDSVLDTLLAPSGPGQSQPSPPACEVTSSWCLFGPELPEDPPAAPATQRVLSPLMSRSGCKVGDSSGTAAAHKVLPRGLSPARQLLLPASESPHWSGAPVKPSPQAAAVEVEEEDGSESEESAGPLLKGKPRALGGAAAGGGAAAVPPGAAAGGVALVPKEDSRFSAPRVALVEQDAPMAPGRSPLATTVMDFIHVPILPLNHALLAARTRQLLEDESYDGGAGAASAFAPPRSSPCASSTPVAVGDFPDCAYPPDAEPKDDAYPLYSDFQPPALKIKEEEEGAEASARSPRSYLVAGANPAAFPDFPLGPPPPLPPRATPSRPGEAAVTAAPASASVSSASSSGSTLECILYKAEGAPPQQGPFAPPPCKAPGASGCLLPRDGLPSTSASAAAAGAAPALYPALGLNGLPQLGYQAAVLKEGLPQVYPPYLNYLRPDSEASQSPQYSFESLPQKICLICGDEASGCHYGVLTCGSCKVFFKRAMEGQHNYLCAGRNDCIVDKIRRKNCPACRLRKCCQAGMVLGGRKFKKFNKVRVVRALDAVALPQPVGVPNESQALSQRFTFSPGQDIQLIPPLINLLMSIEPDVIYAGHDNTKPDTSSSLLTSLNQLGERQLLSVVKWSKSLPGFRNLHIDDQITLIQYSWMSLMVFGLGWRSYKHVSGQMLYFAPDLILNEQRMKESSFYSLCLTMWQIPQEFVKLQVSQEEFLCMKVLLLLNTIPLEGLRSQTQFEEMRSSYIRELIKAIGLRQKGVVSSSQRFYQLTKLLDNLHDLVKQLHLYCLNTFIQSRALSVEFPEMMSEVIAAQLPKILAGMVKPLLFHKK

[6] = target: Growth hormone secretagogue receptor type 1 (Homo sapiens, UniProt Q92847)
Sequence of Growth hormone secretagogue receptor type 1 (Q92847 whole entry): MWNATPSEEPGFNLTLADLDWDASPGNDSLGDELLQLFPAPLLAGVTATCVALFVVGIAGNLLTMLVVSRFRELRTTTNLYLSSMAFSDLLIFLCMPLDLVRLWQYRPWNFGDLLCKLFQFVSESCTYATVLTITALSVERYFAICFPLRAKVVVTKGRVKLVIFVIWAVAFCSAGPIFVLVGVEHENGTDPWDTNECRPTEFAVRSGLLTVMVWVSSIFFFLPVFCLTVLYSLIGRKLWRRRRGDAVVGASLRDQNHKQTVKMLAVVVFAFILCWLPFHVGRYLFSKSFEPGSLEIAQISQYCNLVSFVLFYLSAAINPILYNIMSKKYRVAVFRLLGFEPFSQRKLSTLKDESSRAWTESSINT
Further: assay procedure not described here.

Structure (SMILES)	AC50 [1]	AC50 [2]	AC50 (D(3) dopamine receptor)	AC50 [3]	AC50 (Adenosine receptor A2a)	AC50 (Vasopressin V1a receptor)	AC50 [4]	AC50 [5]	AC50 (Progesterone receptor)	AC50 [6]
C#Cc1cccc(Nc2ncnc3cc(OCCOC)c(OCCOC)cc23)c1 [ERLOTINIB]	> 30 µM	> 30 µM	> 30 µM	> 30 µM	18 µM	> 30 µM	> 30 µM	9.1 µM	> 30 µM	> 30 µM
CC(=O)/N=c1/sc(S(N)(=O)=O)nn1C [METHAZOLAMIDE]	> 10 µM	> 10 µM	> 30 µM	> 30 µM	> 10 µM	> 10 µM	> 30 µM	> 10 µM	> 10 µM	> 10 µM
CC(=O)Oc1ccccc1C(=O)Nc1ncc([N+](=O)[O-])s1 [NITAZOXANIDE]	5.6 µM	19 µM	25 µM	> 10 µM	8.8 µM	17 µM	> 30 µM	6.6 µM	> 30 µM	15 µM
CN(C)CCC(c1ccccc1)c1ccccn1 (centres undefined) [PHENIRAMINE]				> 30 µM						
CC(C)COc1ccc(CNC(=O)N(Cc2ccc(F)cc2)C2CCN(C)CC2)cc1 [PIMAVANSERIN]				> 30 µM						
CC(C)(C)C(=O)NCCCC(=O)O [PIVAGABINE]				> 30 µM						
CC(C)[N+](C)(CCOC(=O)C1c2ccccc2Oc2ccccc21)C(C)C [PROPANTHELINE]				> 30 µM						
CN(C)C(=O)c1nc(CNC(=O)CN)n(-c2ccc(Cl)cc2C(=O)c2ccccc2Cl)n1 [RILMAZAFONE]				> 30 µM						
NC(=O)NS(=O)(=O)c1ccc(N)cc1 [SULFACARBAMIDE]				> 30 µM						
CCCCCCCCNC(C)C(O)c1ccc(SC(C)C)cc1 (centres undefined) [SULOCTIDIL]				11 µM						
CCCCNc1ccc(C(=O)OCCN(C)C)cc1 [TETRACAINE]	> 30 µM	> 10 µM	22 µM	> 30 µM	> 30 µM	> 10 µM	> 30 µM	> 30 µM		> 30 µM
Cn1c(=O)c2[nH]cnc2n(C)c1=O [THEOPHYLLINE]	> 30 µM	> 10 µM	> 30 µM	> 30 µM		> 30 µM		> 30 µM		> 30 µM
CC1(C)O[C@@H]2[C@@H](CO[C@@]3(COS(N)(=O)=O)OC(C)(C)O[C@@H]23)O1 [TOPIRAMATE]	> 30 µM	> 10 µM	> 10 µM	> 30 µM	> 30 µM	> 10 µM	> 30 µM	> 30 µM		> 30 µM
NCCc1ccc(O)cc1 [TYRAMINE]				> 30 µM						
CCCCCCCCCCCCCCCC(=O)OC/C=C(C)/C=C/C=C(C)/C=C/C1=C(C)CCCC1(C)C [VITAMIN A PALMITATE]				> 30 µM						
